One test relates to B16-F10. Nature of the test: Animal model with induced resistance to anticancer agent (taxol), RdB/IL-12/DCN. The settings on record: day 16 (15 days after first taxol administration); taxol 10 mg/kg i.p., RdB/IL-12/DCN 5×10^5 VP, αPD-1 200 μg. The test is classed as in vivo, C57BL/6 mice. The procedure:
Under the conditions where the anti-tumor effect caused by an anticancer agent is insignificant due to the resistance to the anticancer agent, and the like, it was intended to verify an in vivo anti-tumor effect by the co-administration of RdB/IL-12/DCN and the immune checkpoint inhibitor (an anti PD-1 antibody; αPD-1). After a B16-F10 mouse melanoma cell line was injected (5×10^5 cells) subcutaneously into the flank of C57BL/6 mice, taxol (day 1, 2, and 3; 10 mg/kg) was injected intraperitoneally into the formed tumor (day 1, about 50 mm^3), and after RdB/IL-12/DCN was administered alone (day 3, 5, 7, and 9; 5×10^5 VP), αPD-1 was administered alone (day 4, 7, 8, and 10; 200 μg), or RdB/IL-12/DCN and αPD-1 were co-administered (under the same conditions, respectively), the growth of tumors was observed. Meanwhile, a PBS only administration group was used as a negative control.

Test [1] concerns PANC-1. The test can be described thus: MTT assay, RdB/IL-12/DCN with gemcitabine. The test is classed as cell-based, human. The conditions noted are these: gemcitabine alone at 100 μg/ml. The procedure: (§1) For this purpose, human pancreatic cancer cell lines PANC-1, MIA PaCa-2, and AsPC-1 were infected with RdB/IL-12/DCN of the present invention at a MOI of 0.5 or 2, and treated together with gemcitabine (0.05, 0.2, 1, 2, 5, 20, or 100 μg/ml), and then the degree of apoptosis was observed through MTT assay.
(Formazan colour is commonly taken as a measure of viable cells.)

The subject of another test is AsPC-1. The test can be described thus: MTT assay, RdB/IL-12/DCN with gemcitabine. The test is classed as cell-based, human. The conditions noted are these: gemcitabine alone at 100 μg/ml. The procedure: as §1
Test [2] concerns MIA PaCa-2. Nature of the test: MTT assay, RdB/IL-12/DCN with gemcitabine. The settings on record: gemcitabine alone at 100 μg/ml. The test is classed as cell-based, human. As for the experimental part: as §1
Test [3] has as its system MIA PaCa-2-Fluc. Nature of the test: Orthotopic pancreatic cancer animal model, change in size of tumor (IVIS). The test is classed as in vivo, mouse. The settings on record: IVIS imaging; combination: week 1 and 2; RdB/IL-12/DCN 2×10^10 VP i.p. three times, gemcitabine 100 mg/kg twice weekly for 3 weeks. The procedure:
In order to construct an orthotopic pancreatic cancer animal model, a human pancreatic cancer cell line MIA PaCa-2-Fluc was selected and used in the experiment. Tumor cells were injected into the mouse pancreas, and two weeks later, the production of tumors was confirmed through an IVIS imaging machine. Thereafter, RdB/IL-12/DCN was intraperitoneally administered three times at 2×10^10 VP/500 μL every two days, and gemcitabine was administered twice weekly at 100 mg/kg for a total of 3 weeks. Meanwhile, a PBS only administration group was used as a negative control. Before RdB/IL-12/DCN was administered, the size and photon values of tumors were confirmed using the IVIS imaging machine, and at week 1, 2, and 3 after the administration, the changes in size of tumors were quantitatively compared.

Test [4] deals with MIA PaCa-2. Nature of the test: Pancreatic cancer xenograft animal model, extracellular matrix and apoptosis. The test is classed as in vivo, mice. The conditions noted are these: RdB/IL-12/RLX 2×10^6 pfu, gemcitabine 1.5 mg/kg. The procedure:
In order to construct a pancreatic cancer xenograft animal model, 5×10^5 of MIA PaCa-2 were injected subcutaneously into mice, and then when the size of tumors reached 50 to 100 mm^3, a change in extracellular matrix and an apoptosis effect were observed while 2×10^6 pfu of RdB/IL-12/RLX were administered alone or administered in combination with 1.5 mg/kg of gemcitabine. During the co-administration, RdB/IL-12/RLX was intratumorally administered three times in total at an interval of 2 days, and gemcitabine was intraperitoneally administered once. Thereafter, immunohistological staining and hematoxylin-eosin (H & E) staining were performed, and in order to confirm the degree of apoptosis, a TUNEL assay and cleaved caspase 3 immunostaining were performed. Meanwhile, a PBS only administration group was used as a negative control.

A further test has as its system BxPC-3. The test can be described thus: Pancreatic cancer subcutaneous animal model. The conditions noted are these: BxPC-3 subcutaneous; RdB/IL-12/RLX intratumoral, gemcitabine 10 mg/kg. The test is classed as in vivo, mice. The procedure:
(§2) It was intended to verify the anti-tumor effect by the co-administration of RdB/IL-12/RLX and gemcitabine in a pancreatic cancer subcutaneous animal model. The formation of tumors was induced by injecting PANC-1, MIA PaCa-2, or BxPC-3 cells subcutaneously into mice, a change in size of tumors was observed while RdB/IL-12/RLX was administered alone or RdB/IL-12/RLX was administered (administered intratumorally) in combination with gemcitabine (10 mg/kg). Meanwhile, a PBS only administration group was used as a negative control.

In test [5] the test system is PANC-1. Nature of the test: Pancreatic cancer subcutaneous animal model. The settings on record: PANC-1 subcutaneous; RdB/IL-12/RLX intratumoral, gemcitabine 10 mg/kg. The test is classed as in vivo, mice. The procedure: as §2
In test [6] the test system is MIA PaCa-2. Nature of the test: Pancreatic cancer subcutaneous animal model. The test is classed as in vivo, mice. The conditions noted are these: MIA PaCa-2 subcutaneous; RdB/IL-12/RLX intratumoral, gemcitabine 10 mg/kg. The procedure: as §2
Test [7] has as its system MIA PaCa-2-Fluc. The test can be described thus: Histological evaluation of orthotopic pancreatic tumors (H&E, PCNA, TUNEL, E1A). The test is classed as in vivo, mouse. The settings on record: orthotopic MIA PaCa-2-Fluc tumor tissue. As for the experimental part: It was intended to histologically evaluate the anti-tumor effect of the aforementioned experiments. First, the formation of tumors was induced by injecting a human pancreatic cancer cell line MIA PaCa-2-Fluc into the mouse pancreas, and then PBS, gemcitabine, RdB/IL-12/DCN, or gemcitabine+RdB/IL-12/DCN was each administered thereto. Thereafter, hematoxylin-eosin (H & E) staining and PCNA immunohistological staining were performed after collecting the tumor tissues. Further, a TUNEL assay was performed in order to confirm the degree of apoptosis of tumor cells, and immunohistological staining using an antibody against an E1A protein of the adenovirus was performed in order to confirm whether the anti-tumor effect was caused by the replication of the adenovirus present in tumor tissues.

Each structure is given as a SMILES string.

`CC(=O)O[C@H]1C(=O)[C@@]2(C)[C@H]([C@H](OC(=O)c3ccccc3)[C@]3(O)C[C@H](OC(=O)[C@H](O)[C@@H](NC(=O)c4ccccc4)c4ccccc4)C(C)=C1C3(C)C)[C@]1(OC(C)=O)CO[C@@H]1C[C@@H]2O` [taxol] showed a size of tumors with B16-F10 of 5394.5±288.2 mm^3.
Consider `Nc1ccn([C@@H]2O[C@H](CO)[C@@H](O)C2(F)F)c(=O)n1` [gemcitabine], for which the “ability to kill the pancreatic cancer cell lines (MTT assay)” value with PANC-1 [1], in the test on AsPC-1 and with MIA PaCa-2 [2] was “at most 30%” in each case. The “change in size of tumors” value in the test on MIA PaCa-2-Fluc [3] was “sharp increases in size of tumors”; in the test with BxPC-3, “sharp increase in size of tumors”; in the test on PANC-1 [5], “sharp increase in size of tumors”; in the test with MIA PaCa-2 [6], “sharp increase in size of tumors”. For the same molecule, in the test with MIA PaCa-2 [4], the “necrosis or apoptosis of cells in tumors (H & E, TUNEL, cleaved caspase 3)” value was “almost hardly proceeded or was insignificant”. The “necrosis of cells in tumors (H & E staining)” value in the test on MIA PaCa-2-Fluc [7] is given as “hardly observed”.

(Values after patent US20250082702A1, “ANTICANCER COMPOSITION COMPRISING RECOMBINANT ADENOVIRUS EXPRESSING DEGRADATION FACTOR FOR EXTRACELLULAR MATRIX” (priority 2016, published 2025).)
